Assay results as given in patent publication US20160074421A1 (priority 2014, published 2016).

Legend:
tight junction = system: tight junction; set-up: species or system BALB/c mice; conditions: mouse, in vivo, iv
[1] = system: epithelial and endothelial tissues; conditions: in vivo
PTEN = PTEN (Homo sapiens, UniProt P60484); format: biochemical
Chain of PTEN (P60484 whole entry): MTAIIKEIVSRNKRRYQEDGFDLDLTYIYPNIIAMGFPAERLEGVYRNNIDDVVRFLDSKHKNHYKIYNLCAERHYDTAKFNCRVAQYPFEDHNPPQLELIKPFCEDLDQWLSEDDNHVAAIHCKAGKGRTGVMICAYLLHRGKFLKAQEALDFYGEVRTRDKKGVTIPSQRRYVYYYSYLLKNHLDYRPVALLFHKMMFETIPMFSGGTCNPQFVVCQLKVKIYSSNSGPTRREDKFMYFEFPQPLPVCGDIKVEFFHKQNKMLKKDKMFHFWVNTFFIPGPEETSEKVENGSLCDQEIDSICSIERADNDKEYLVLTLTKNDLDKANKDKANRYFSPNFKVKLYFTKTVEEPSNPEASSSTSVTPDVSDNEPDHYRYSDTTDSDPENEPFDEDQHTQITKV

1-D-Myo-inositol 1,2,6-triphosphate [alpha trinositol]
effect on tight junction disturbance (tight junction): have a counterbalancing effect

sodium salt of D-myo-inositol-1,2,6-trisphosphate
progressive deterioration of the structure and function of anatomical structures in epithelial and endothelial tissues [1]: prevented this deterioration | confirmation of the prevention of tissue deterioration ([1]; iv): confirmed

zinc ions
activity of PTEN (PTEN): inhibit the activity of PTEN
